The values below come from BindingDB's records for doi:10.1021/cb500009r (Shanghai Center For Systems Biomedicine, 2014).

Each structure is given as a SMILES string. Where only a bound is given, the exact number is not on record here.

Assay [1] concerns the target T1, Dopa decarboxylase (Aromatic L-amino acid decarboxylase), isoform CRA_a (Homo sapiens, UniProt Q53Y41).
T1 sequence (Q53Y41 whole entry): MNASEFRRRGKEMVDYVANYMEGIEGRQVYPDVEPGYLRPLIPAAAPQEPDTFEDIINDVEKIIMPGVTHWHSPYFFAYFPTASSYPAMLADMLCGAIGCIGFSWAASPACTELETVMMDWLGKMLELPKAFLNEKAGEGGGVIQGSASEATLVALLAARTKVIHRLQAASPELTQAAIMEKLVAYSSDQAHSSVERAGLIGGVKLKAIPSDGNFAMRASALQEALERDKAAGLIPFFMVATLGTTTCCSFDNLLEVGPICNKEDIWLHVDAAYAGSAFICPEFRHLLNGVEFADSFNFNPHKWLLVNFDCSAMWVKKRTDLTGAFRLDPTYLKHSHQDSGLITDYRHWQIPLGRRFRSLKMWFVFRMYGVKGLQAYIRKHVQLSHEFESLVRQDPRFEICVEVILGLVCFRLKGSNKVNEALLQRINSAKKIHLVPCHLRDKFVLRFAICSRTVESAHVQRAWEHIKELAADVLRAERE
The assay can be described thus: DDC-MDH-PEPC-Linked assay. To be noted: pH 8.05; 37 °C. The protocol: To the wells of a 384-well polypropylene plate, 1 µL DMSO (control) or test compounds at indicated concentrations were added, followed by the addition of 24.5 µL enzyme mix [50 mM Tris-HCl, 50 mM NaCl, 0.015% (w/v) BSA, 5 mM MgCl2, 2 mM β-mercaptoethanol, 760 µM NADH, 330 nM PEPC, 100 µM PLP and 284 nM hDDC, pH 8.05], and 24.5 µL substrate mix [50 mM Tris-HCl containing 50 mM NaCl, 0.015% (w/v) BSA, 5 mM MgCl2, 2 mM β-mercaptoethanol, 10 mM PPPA, 0.49 U MDH and 1.5 mM L-DOPA, pH 8.05]. The plate was sealed and incubated for 1 h in 37 °C. The OD was taken at 340 nm.

Assay [2] concerns the target Cystathionine gamma-lyase (Homo sapiens, UniProt P32929). Briefly: Human CSE enzyme assay. To be noted: pH 7; 37 °C. The protocol: 500 nM hCSE in optimal buffer (50 mM Hepes, pH 7.0; final concentration) was incubated with compound for 45 min in the 192-tandem-well plate before adding substrate (5 mM L-cysteine; final concentration). The reaction was then incubated at 37 °C for 60 min before the absorbance at 413 nm of DTNB was measured.

Sequence of Cystathionine gamma-lyase (P32929 whole entry): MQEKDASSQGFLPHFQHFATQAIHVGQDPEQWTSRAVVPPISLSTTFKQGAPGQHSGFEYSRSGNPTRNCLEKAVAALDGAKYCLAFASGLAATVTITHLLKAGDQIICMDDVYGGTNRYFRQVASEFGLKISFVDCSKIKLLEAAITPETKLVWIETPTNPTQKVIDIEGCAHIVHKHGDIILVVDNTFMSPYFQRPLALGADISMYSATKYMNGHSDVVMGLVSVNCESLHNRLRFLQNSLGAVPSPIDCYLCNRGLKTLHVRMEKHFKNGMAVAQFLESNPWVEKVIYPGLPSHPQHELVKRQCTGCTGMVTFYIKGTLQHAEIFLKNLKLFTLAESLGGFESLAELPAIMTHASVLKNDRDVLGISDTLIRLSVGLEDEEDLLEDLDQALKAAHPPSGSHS

Regarding `COc1ccc(CCCc2ccc(O)c(OC)c2)c(O)c1` [1-(2-hydroxy-4-meth-oxyphenyl)-3-(4-hydroxy-3-methoxyphenyl)propane (12)], the IC50 in assay [1] and in assay [2] was over 200 µM in each case.

As for `COc1cc(CC=C(c2cc(O)c(OC)cc2O)c2c(OC)cc3c(c2O)CCC(c2ccc(O)c(OC)c2)O3)ccc1O` (stereo not drawn) [Euonyquinone B (7)], the values for the IC50 in assay [1] and in assay [2] were 50 µM and over 200 µM, respectively.

As for `COc1cc(CC=C(c2cc(O)c(OC)cc2O)c2cc(CCCc3ccc(O)c(OC)c3)c(O)cc2OC)ccc1O` [Combrequinone B (6)], the IC50 in assay [1] was 21.6 µM; in assay [2], over 200 µM.

Take `COc1ccc2c(c1)O[C@@H](c1ccc(O)c(O)c1)CC2` [(2R)-3′,4′-Dihydroxy-7-methoxyflavan (13)]: the IC50 in assay [1] and in assay [2] was over 200 µM throughout.

As for `COc1cc(CCCc2cc(C(CCc3ccc(O)c(OC)c3)c3cc(OC)c(OC)cc3O)c(OC)cc2O)ccc1O` (stereo not drawn) [Euonydiarylpropane A (1)], the IC50 in assay [1] is 100 µM; in assay [2], over 200 µM.

As to `COC1=CC(=O)C(CC(=O)Cc2ccc(O)c(OC)c2)=C(c2cc(CCCc3ccc(O)c(OC)c3)c(OC)cc2O)C1=O` [Euonyquinone A (5)], the IC50 in assay [1] was 11.5 µM; in assay [2], over 200 µM.

Turning to `COc1cc(CCCc2ccc(O)cc2OC)ccc1O` [Griffithane B (10)], the IC50 in assay [1] and in assay [2] was over 200 µM in each case.

Take `COc1cc(CCCc2ccc(OC)c(O)c2OC)ccc1O` [Broussonin F (11)]: the IC50 in assay [1] and in assay [2] was over 200 µM in each case.

With `COc1cc(CCCc2cc(C(CCc3ccc(O)c(OC)c3)c3cc(O)c(OC)cc3OC)c(O)cc2OC)ccc1O` (stereo not drawn) [Euonydiarylpropane D (4)], the IC50 in assay [1] and in assay [2] was over 200 µM each time.

As for `COc1cc(OC)c2c(c1)O[C@@H](c1ccc(O)c(O)c1)CC2` [(2R)-3′,4′-Dihydroxy-5,7-methoxyflavan (14)], the IC50 in assay [1] and in assay [2] was over 200 µM in each case.

`COc1cc(CC=C(c2cc(O)c(OC)cc2O)c2c(OC)cc3c(c2O)CCC(c2ccc(O)c(O)c2)O3)ccc1O` (stereo not drawn) [(+)-Euonyquinone C (9)]: the IC50 is 100 µM in assay [1] and over 200 µM in assay [2].

For the compound `COc1ccc(C(CCc2ccc(O)c(OC)c2)c2cc(CCCc3ccc(O)c(OC)c3)c(O)cc2OC)c(O)c1` (stereo not drawn) [Euonydiarylpropane C (3)], the IC50 in assay [1] and in assay [2] was over 200 µM throughout.

For the compound `COc1cc(CCCc2cc(C(CCc3ccc(O)c(OC)c3)c3cc(OC)c(OC)cc3O)c(O)cc2OC)ccc1O` (stereo not drawn) [Euonydiarylpropane B (2)], the IC50 is 100 µM in assay [1] and over 200 µM in assay [2].

Consider `C[C@](N)(Cc1ccc(O)c(O)c1)C(=O)O` [SMR000059170], for which the results for the IC50 in assay [1] and in assay [2] were 1200 µM and 3000 µM, respectively.
